Assay results reported in patent US20240101538A1, “PROTEIN-PROTEIN INTERACTION MODULATORS OF AURORA KINASE A AND THEIR USE IN THE PREVENTION AND/OR TREATMENT OF CANCER” (EBERHARD KARLS UNIVERSITÄT TÜBINGEN, priority 2020, published 2024).
Like-named read-outs stand apart in the source and are kept apart here.

How the values were obtained:
[1] = tested on: NMP53^−/− cells; experiment: Colony formation assay on NMP53^−/− cells; type: cell-based, murine; conditions: colony formation assay; for minimal effective concentration: 5 days, read-out: EC (NMP53^−/−)
From the text: (§1) To evaluate the effect of small molecules equipped with R-spine interacting moieties, the inventors screened a focused library of proprietary p38a MAP-Kinase inhibitors which were equipped with R-spine interacting pharmacophores. To this end, the inventors utilized a screening system as developed in Dauch et al.^2 The screening system is based on colony formation assays of cell lines isolated from Nras-driven, Trp53-deficient murine HCCs, whose development is dependent on MYC (NMP53^−/− cells), as well as Nras-driven, Cdkn2a^ARF-deficient murine HCCs, which develop independently of MYC (NMCdkn2a^ARF−/− cells). Importantly, NMP53^−/− cells are sensitive to AURKA inhibitors, which induce a conformational shift in AURKA, whereas NMCdkn2a^ARF−/− are not sensitive to such compounds.
(§2) For Colony Formation Assays, cells were seeded at a density of 50 000 cells per 6 well and next day treated with a 2-fold dilution series of the indicated compounds or the highest corresponding DMSO concentration as control. After 5 days, the cells were fixed with a 10% formaldehyde solution for 30 min, washed once with water, stained with a 0.5% crystal violet solution for 30 min and washed twice with water. The compounds effective concentration (EC) was determined according to the lowest concentration in the dilution series, that inhibited cell growth substantially. The resulting benzamide containing hit structure 1, with a twofold selectivity towards NMP53^−/− cells (effective concentration on NMP53^−/− cells (EC): 2 μM, EC on Cdkn2a^ARF−/−: 4 μM, FIG. 1), served as the inventors' starting point for further compound development.

[2] = target: AURKA (Homo sapiens (Human), UniProt O14965); experiment: Radioisotope filter binding assay (HotSpotSM; ReactionBiology) for AURKA kinase inhibition; type: biochemical
Chain of AURKA (O14965 whole entry): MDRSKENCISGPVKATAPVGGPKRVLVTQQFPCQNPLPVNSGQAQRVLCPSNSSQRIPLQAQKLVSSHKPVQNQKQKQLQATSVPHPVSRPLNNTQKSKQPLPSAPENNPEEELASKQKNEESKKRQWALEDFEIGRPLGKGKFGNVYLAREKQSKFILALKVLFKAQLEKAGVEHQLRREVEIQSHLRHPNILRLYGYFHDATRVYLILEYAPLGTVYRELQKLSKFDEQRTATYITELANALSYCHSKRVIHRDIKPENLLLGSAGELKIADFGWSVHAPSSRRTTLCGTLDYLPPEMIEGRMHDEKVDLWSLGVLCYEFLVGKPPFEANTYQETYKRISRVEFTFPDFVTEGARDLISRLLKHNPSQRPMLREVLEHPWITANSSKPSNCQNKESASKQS
From the text: Table 2 summarizes the EC values of different compounds of this invention determined by colony formation assays on NMP53^−/− and NMCdkn2a^ARF−/− cells, as well as the corresponding IC50 values for the kinase inhibition of AURKA, determined by radioisotope filter binding assay (HotSpotSM; ReactionBiology). Most compounds further show a strong selectivity for NMP53^−/− cells, which is indicated by a lower EC concentration of a particular compound required for inhibiting cell growth of NMP53^−/− cells compared to NMCdkn2a^ARF−/− cells.

[3] = tested on: NMCdkn2a^ARF−/− cells; experiment: Colony formation assay on NMCdkn2a^ARF−/− cells; type: cell-based, murine; conditions: 5 days, read-out: EC (NMCdkn2a^ARF−/−)
From the text: as §1, §2

[4] = target: MYC-AURKA interaction (Mus musculus (Mouse), UniProt P97477); experiment: Proximity ligation assay (PLA) for MYC and AURKA in NMP53^−/− cells; type: cell-based, murine; conditions: 24 h after treatment
Chain of MYC-AURKA interaction (P97477 whole entry): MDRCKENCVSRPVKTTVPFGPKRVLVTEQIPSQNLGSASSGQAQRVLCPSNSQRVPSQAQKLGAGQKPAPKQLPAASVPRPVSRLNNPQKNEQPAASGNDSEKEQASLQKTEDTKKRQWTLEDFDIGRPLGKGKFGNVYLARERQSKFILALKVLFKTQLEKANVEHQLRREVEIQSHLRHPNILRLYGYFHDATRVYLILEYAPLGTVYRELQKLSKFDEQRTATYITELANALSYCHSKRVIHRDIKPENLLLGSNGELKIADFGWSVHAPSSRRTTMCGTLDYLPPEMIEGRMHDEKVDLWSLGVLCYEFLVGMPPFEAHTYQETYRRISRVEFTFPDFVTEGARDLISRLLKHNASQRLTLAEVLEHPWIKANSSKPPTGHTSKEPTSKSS
Description: To examine whether this MYC degradation is associated with MYC-AURKA PPI disruption, the inventors performed proximity ligation assays (PLA) in NMP53^−/− cells. For Proximity Ligation Assay (PLA), 50 000 cells were seeded on 12 mm glass slides placed in 6 well plates. On the next day, the cells were treated with the indicated compounds or the corresponding DMSO concentration for 2 h (compound 2c [N-(5-((4-(1H-pyrazole-4-yl)benzyl)amino)-2-fluorophenyl)-3-(furan-2-yl)propanamide] and compound 3a [N-(2-fluoro-5-((4-(1-methyl-1H-pyrazole-4-yl)benzyl)amino)phenyl)-3-(furan-2-yl)propanamide]) or 24 h (alisertib) and fixed for 10 min in 100% MeOH at −20° C. The glass slides were removed from the 6 well plates and the cells permeabilized with TBS+0.3% Triton X-100 for 5 min. After washing with PBS and blocking with 5% BSA in TBS+0.05% Tween for 30 min, the slides were incubated with MYC (Abeam ab32072, 1:200) and AURKA (Abcam ab13824, 1:200) specific antibodies in 1% BSA in TBS+0.05% Tween for 120 min at RT and washed 3 times with PBS for 5 min, wherein the MYC/TPX2 and AURKA specific antibodies are derived from a different species. After a 20 min pre-incubation of two PLA probes, directed against either species of the MYC/TPX2 and AURKA specific antibodies, at RT (DUO92001 and DUO92005 Sigma Aldrich, diluted 1:10 in 1% BSA in TBS+0.05% Tween), the slides were incubated with the probes for 60 min at 37° C. in a humidified chamber. The slides were washed 3 times with 1× wash buffer A (Sigma Aldrich DUO82049) for 5 min and incubated with the ligase solution (ligase diluted 1:40 in 5× ligase buffer and ddH2O, Sigma Aldrich DUO92008) for 60 min at 37° C. in a humidified chamber. […] The foci per cell were counted in a way that the cytoplasmic foci are counted to the cell with the closest nucleus (DAPI). Significance was calculated with the GraphPad Prism 8.4.0 software (GraphPad Software, La Jolla, CA) by using the nonparametric Mann Whitney test.

[5] = tested on: late stage HCC; conditions: patients with late stage HCC, on average; cited from earlier work
[6] = Mus musculus, 120 h, lowest concentration of 2-fold dilution series that inhibited cell growth substantially

Row | Compound | IC50 [2] [µM] | minimal effective concentration ([1]; Mus musculus, 120 h) [µM] | minimal effective concentration ([3]; Mus musculus, 120 h) [µM] | also measured
1 | O=C(CCc1ccccc1)Nc1cc(NCc2ccc(-c3cn[nH]c3)cc2)ccc1F [Compound 2a, N-(5-((4-(1H-pyrazole-4-yl)benzyl)amino)-2-fluorophenyl)-3-phenylpropanamide] | 6.9 |  |  | minimal effective concentration [1, 6]: 0.5 µM; selectivity for NMP53^−/− cells ([1]; NMP53^−/− versus NMCdkn2a^ARF−/− cells): 4 fold; minimal effective concentration [1]: >4 µM; minimal effective concentration [3]: >4 µM; minimal effective concentration [3, 6]: 2 µM
2 | Cn1cc(-c2ccc(CNc3ccc(F)c(NC(=O)CCc4ccccc4)c3)cc2)cn1 [Compound 97, N-(2-fluoro-5-((4-(1-methyl-1H-pyrazol-4-yl)benzyl)amino)phenyl)-3-phenylpropanamide] | 0.532 | 0.25 | 1 | 
3 | Cc1noc(C)c1-c1ccc(CNc2ccc(F)c(NC(=O)CCc3ccco3)c2)cc1 [Compound 139, N-(5-((4-(3,5-Dimethylisoxazol-4-yl)benzyl)amino)-2-fluorophenyl)-3-(furan-2-yl)propanamide] |  | 0.5 | 1 | 
4 | Nc1n[nH]cc1-c1ccc(CNc2ccc(F)c(NC(=O)CCc3ccco3)c2)cc1 [Compound 144, N-(5-((4-(3-Amino-1H-pyrazol-4-yl)benzyl)amino)-2-fluorophenyl)-3-(furan-2-yl)propanamide] |  | 0.25 | > 1 | 
5 | Cn1cc(-c2ccc(CNc3ccc(F)c(NC(=O)CCc4ccco4)c3)cc2)c(N)n1 [Compound 145, N-(5-((4-(3-Amino-1-methyl-1H-pyrazol-4-yl)benzyl)amino)-2-fluorophenyl)-3-(furan-2-yl)propanamide] |  | 0.25 | > 1 | 
6 | Cn1ncc(-c2ccc(CNc3ccc(F)c(NC(=O)CCc4ccco4)c3)cc2)c1N [Compound 146, N-(5-((4-(5-Amino-1-methyl-1H-pyrazol-4-yl)benzyl)amino)-2-fluorophenyl)-3-(furan-2-yl)propanamide] |  | 0.125 | > 1 | 
7 | Cn1ccc(Nc2ccc(CNc3ccc(F)c(NC(=O)CCc4ccco4)c3)cc2)n1 [Compound 155, N-(2-fluoro-5-((4-((1-methyl-1H-pyrazol-3-yl)amino)benzyl)amino)phenyl)-3-(furan-2-yl)propanamide] |  | 0.25 | > 1 | 
8 | CC(=O)n1cc(-c2ccc(CNc3ccc(F)c(NC(=O)CCc4ccco4)c3)cc2)cn1 [Compound 164, N-(5-((4-(1-Acetyl-1H-pyrazol-4-yl)benzyl)amino)-2-fluorophenyl)-3-(furan-2-yl)propanamide] |  | 0.125 | > 1 | 
9 | NCCn1cc(-c2ccc(CNc3ccc(F)c(NC(=O)CCc4ccco4)c3)cc2)cn1 [Compound 167, N-(5-((4-(1-(2-Aminoethyl)-1H-pyrazol-4-yl)benzyl)amino)-2-fluorophenyl)-3-(furan-2-yl)propanamide] |  | 0.5 | 1 | 
10 | COc1cc(Nc2ncc3c(n2)-c2ccc(Cl)cc2C(c2c(F)cccc2OC)=NC3)ccc1C(=O)O [alisertib, reference compound] |  |  |  | reduction of the MYC-AURKA interaction compared to DMSO [4]: 60%
11 | CNC(=O)c1cc(Oc2ccc(NC(=O)Nc3ccc(Cl)c(C(F)(F)F)c3)cc2)ccn1 [sorafenib] |  |  |  | prolonged survival [5]: 2.8 months

Further lines, with some results ahead:

Row | IC50 [2] [µM] | Compound | minimal effective concentration ([1]; Mus musculus, 120 h) [µM] | minimal effective concentration ([3]; Mus musculus, 120 h) [µM] | also measured
12 | > 10 | O=C(Cc1ccccc1)Nc1cc(NCc2cc(-c3cc4cccnc4[nH]3)ccn2)ccc1F [Compound 18c, N-(5-(((4-(1H-Pyrrolo[2,3-b]pyridin-2-yl)pyridin-2-yl)methyl)amino)-2-fluorophenyl)-2-phenylacetamide] | 0.25 | 0.5 | 
13 | 0.0079 | O=C(CCc1ccccc1)Nc1cc(NCc2ccc(-c3cn[nH]c3)cc2)ccc1F [Compound 95b, N-(5-((4-(1H-Pyrazol-4-yl)benzyl)amino)-2-fluorophenyl)-3-phenylpropanamide] |  | 2 | minimal effective concentration [1]: 0.5 µM
14 | > 10 | Cn1cc(-c2ccc(CNc3ccc(F)c(NC(=O)CCc4ccoc4)c3)cc2)cn1 [Compound 107n, N-(2-fluoro-5-((4-(1-methyl-1H-pyrazol-4-yl)benzyl)amino)phenyl)-3-(furan-3-yl)propanamide] | 0.062 | > 0.25 | 
15 | > 10 | Cn1cc(-c2ccc(CNc3ccc(F)c(NC(=O)CCc4cccs4)c3)cc2)cn1 [Compound 107o, N-(2-fluoro-5-((4-(1-methyl-1H-pyrazol-4-yl)benzyl)amino)phenyl)-3-(thiophen-2-yl)propanamide] | 0.125 | 1 | 
16 | > 10 | Cn1cc(-c2ccc(CNc3ccc(F)c(NC(=O)CCc4ccsc4)c3)cc2)cn1 [Compound 107p, N-(2-fluoro-5-((4-(1-methyl-1H-pyrazol-4-yl)benzyl)amino)phenyl)-3-(thiophen-3-yl)propanamide] | 0.062 | > 0.25 | 
17 | > 10 | Cn1cc(-c2ccc(CNc3ccc(F)c(NC(=O)/C=C/c4ccco4)c3)cc2)cn1 [Compound 107r, (E)-N-(2-fluoro-5-((4-(1-methyl-1H-pyrazol-4-yl)benzyl)amino)phenyl)-3-(furan-2-yl)acrylamide] | 0.062 | > 0.25 | 
18 | > 10 | Cn1cc(-c2ccc(CNc3ccc(F)c(NC(=O)C=Cc4ccccc4)c3)cc2)cn1 [Compound 107s, N-(2-fluoro-5-((4-(1-methyl-1H-pyrazol-4-yl)benzyl)amino)phenyl)cinnamamide] | 0.5 | > 1 | 
